Our source for the IC50 values is ChEMBL document CHEMBL2203174, “SAR Development of Lysine-Based Irreversible Inhibitors of Transglutaminase 2 for Huntington's Disease” (ACS Med Chem Lett, 2012).

Experiment [1] addresses T1, Protein-glutamine gamma-glutamyltransferase 6 (Homo sapiens, UniProt O95932).
T1 sequence (O95932 whole entry): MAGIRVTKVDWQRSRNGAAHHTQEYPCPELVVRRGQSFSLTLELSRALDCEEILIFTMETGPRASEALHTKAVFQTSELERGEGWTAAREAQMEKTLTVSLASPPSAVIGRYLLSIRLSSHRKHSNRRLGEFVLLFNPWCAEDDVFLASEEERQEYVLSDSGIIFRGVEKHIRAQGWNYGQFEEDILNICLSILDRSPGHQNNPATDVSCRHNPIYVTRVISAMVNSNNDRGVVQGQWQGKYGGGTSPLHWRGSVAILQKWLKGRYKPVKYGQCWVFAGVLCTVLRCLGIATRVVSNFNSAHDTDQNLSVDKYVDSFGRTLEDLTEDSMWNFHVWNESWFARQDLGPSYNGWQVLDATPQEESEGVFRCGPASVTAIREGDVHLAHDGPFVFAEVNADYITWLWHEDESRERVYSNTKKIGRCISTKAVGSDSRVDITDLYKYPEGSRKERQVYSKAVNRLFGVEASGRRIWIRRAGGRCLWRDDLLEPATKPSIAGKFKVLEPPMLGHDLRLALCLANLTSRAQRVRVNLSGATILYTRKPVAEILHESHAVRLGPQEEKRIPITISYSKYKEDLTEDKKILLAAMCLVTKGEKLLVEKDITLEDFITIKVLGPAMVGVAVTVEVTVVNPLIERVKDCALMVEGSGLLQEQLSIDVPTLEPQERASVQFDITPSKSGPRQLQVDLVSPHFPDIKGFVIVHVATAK
In words: Inhibition of transglutaminase 6.

Experiment [2] has as its target T2, Protein-glutamine gamma-glutamyltransferase E (Homo sapiens, UniProt Q08188).
T2 sequence (Q08188 whole entry): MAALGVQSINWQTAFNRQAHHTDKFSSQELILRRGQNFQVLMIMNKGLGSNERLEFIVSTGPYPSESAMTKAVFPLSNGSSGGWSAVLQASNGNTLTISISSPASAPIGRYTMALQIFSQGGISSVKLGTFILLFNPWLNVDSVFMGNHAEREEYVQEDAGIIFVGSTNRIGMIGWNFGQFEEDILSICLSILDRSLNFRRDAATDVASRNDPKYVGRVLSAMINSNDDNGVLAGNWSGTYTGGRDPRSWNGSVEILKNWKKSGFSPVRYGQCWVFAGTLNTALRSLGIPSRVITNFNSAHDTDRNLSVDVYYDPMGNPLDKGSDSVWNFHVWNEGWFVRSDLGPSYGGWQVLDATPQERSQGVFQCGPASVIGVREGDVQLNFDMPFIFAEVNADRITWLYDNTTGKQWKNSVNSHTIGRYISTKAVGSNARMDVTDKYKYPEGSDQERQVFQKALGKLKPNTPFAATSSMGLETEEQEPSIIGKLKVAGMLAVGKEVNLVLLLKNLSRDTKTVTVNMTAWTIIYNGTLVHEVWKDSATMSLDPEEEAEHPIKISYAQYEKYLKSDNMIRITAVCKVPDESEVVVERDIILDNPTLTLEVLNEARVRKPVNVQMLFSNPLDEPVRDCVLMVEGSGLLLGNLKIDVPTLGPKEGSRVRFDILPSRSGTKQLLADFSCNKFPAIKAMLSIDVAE
In words: Inhibition of transglutaminase 3.

Experiment [3] concerns the target T3, Protein-glutamine gamma-glutamyltransferase (Homo sapiens, UniProt P21980).
T3 sequence (P21980 whole entry): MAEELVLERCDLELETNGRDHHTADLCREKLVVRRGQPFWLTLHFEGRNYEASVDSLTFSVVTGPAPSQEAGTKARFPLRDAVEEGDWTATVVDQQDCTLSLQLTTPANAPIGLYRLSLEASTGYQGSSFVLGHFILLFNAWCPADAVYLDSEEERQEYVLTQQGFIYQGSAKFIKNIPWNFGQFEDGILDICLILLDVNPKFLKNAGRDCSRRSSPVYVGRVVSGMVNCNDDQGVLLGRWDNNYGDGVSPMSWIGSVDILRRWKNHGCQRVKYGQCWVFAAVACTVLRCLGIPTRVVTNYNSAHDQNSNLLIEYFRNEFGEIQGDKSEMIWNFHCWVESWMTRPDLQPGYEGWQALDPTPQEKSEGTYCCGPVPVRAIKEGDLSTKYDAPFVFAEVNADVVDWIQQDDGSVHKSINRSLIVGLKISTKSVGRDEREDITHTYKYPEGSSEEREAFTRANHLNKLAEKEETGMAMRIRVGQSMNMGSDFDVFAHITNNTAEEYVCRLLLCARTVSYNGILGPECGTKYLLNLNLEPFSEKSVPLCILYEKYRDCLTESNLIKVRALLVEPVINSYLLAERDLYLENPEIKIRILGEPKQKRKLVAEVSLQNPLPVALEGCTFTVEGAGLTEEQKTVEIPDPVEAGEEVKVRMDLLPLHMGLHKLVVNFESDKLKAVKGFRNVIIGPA
In words: Irreversible inhibition of transglutaminase 2.

Experiment [4] addresses T4, Protein-glutamine gamma-glutamyltransferase K (Homo sapiens, UniProt P22735).
T4 sequence (P22735 whole entry): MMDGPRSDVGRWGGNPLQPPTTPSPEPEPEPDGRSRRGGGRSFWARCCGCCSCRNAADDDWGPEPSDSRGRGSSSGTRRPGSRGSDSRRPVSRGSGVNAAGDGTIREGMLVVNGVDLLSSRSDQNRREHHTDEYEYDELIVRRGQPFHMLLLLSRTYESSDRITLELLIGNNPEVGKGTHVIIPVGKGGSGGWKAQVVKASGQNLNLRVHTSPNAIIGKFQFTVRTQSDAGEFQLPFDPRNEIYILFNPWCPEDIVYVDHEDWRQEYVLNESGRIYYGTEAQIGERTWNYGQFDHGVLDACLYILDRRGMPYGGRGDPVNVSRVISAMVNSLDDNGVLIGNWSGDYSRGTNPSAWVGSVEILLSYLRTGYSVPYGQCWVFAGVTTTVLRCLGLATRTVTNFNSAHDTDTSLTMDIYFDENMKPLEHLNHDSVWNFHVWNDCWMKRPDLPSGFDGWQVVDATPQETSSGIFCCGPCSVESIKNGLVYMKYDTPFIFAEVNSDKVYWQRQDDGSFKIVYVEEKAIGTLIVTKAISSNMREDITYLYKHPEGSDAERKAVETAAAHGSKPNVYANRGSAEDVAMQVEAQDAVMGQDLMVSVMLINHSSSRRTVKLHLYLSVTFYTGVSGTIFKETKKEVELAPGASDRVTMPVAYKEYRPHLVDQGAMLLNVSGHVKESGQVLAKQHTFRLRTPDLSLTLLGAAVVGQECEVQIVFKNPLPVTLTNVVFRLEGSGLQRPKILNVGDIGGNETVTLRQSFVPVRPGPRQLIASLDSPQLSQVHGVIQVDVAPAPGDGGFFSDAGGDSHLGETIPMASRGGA
Nature of the experiment: Inhibition of transglutaminase 1.

pIC50: −log10 of the molar value. Peptide text beside a SMILES is read from it. * marks the point of attachment. Cbz = O=C(OCc1ccccc1)*; Acryloyl = C=CC(=O)*; OtBu = CC(C)(C)O* A value given as a limit tells only on which side of the number the result lay.

With `C=CC(=O)NCCCC[C@H](NC(=O)Cc1ccccc1)C(=O)N1CCN(c2cccc(C)n2)CC1`, the negative-log IC50 (pIC50) in experiment [1] is under 4.10; in experiment [2], under 4.10; in experiment [3], 7.85; in experiment [4], 4.82.
Consider `C=CC(=O)NCCCC[C@H](NC(=O)OCc1ccccc1)C(=O)N1CCN(c2ccccc2Cl)CC1`, for which the pIC50 in experiment [1] is 4.16; in experiment [2] it was under 4.10; in experiment [3], 7.21; in experiment [4], 4.89.
`C=CC(=O)NCCCC[C@H](NC(=O)OCc1ccccc1)C(=O)NCC(=O)OC(C)(C)C` (Cbz-Lys(Acryloyl)-Gly-OtBu): the pIC50 in experiment [1] was under 4.10; in experiment [2], under 4.10; in experiment [3] it was 5.51; in experiment [4], under 4.10.
